In PubChem BioAssay (NCI):
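A five-concentration, 48-hour dose response in 96-well plates underlies each endpoint, interpolated linearly between surrounding concentrations. GI50 marks 50% less growth. TGI denotes the concentration required for complete inhibition of growth.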

Columns and labels:
Test in all cases: NCI tumour cell line growth inhibition, 48 h
SF-539 CNS = test system: SF-539 CNS
RPMI-8226 leukemia = test system: RPMI-8226 leukemia
SNB-19 CNS = test system: SNB-19 CNS
A549 NSCLC = test system: A549 NSCLC
IGROV1 ovarian = test system: IGROV1 ovarian
SW-620 colon = test system: SW-620 colon
SNB-75 CNS = test system: SNB-75 CNS
U251 CNS = test system: U251 CNS
NCI/ADR-RES ovarian = test system: NCI/ADR-RES ovarian
COLO 205 colon = test system: COLO 205 colon
MALME-3M melanoma = test system: MALME-3M melanoma
MOLT-4 leukemia = test system: MOLT-4 leukemia
T-47D breast = test system: T-47D breast
UACC-257 melanoma = test system: UACC-257 melanoma
HOP-62 NSCLC = test system: HOP-62 NSCLC
SK-OV-3 ovarian = test system: SK-OV-3 ovarian
A498 renal = test system: A498 renal
M14 melanoma = test system: M14 melanoma
MDA-MB-231 breast = test system: MDA-MB-231 breast
NCI-H226 lung = test system: NCI-H226 lung
NCI-H522 lung = test system: NCI-H522 lung
786-0 renal = test system: 786-0 renal
TK-10 renal = test system: TK-10 renal
HCC-2998 colon = test system: HCC-2998 colon
SK-MEL-2 melanoma = test system: SK-MEL-2 melanoma
HL-60(TB) leukemia = test system: HL-60(TB) leukemia
KM12 colon = test system: KM12 colon
K-562 leukemia = test system: K-562 leukemia
OVCAR-3 ovarian = test system: OVCAR-3 ovarian
UO-31 renal = test system: UO-31 renal
BT-549 breast = test system: BT-549 breast
MCF7 breast = test system: MCF7 breast
HS 578T breast = test system: HS 578T breast
PC-3 prostate = test system: PC-3 prostate
DU-145 prostate = test system: DU-145 prostate
SK-MEL-5 melanoma = test system: SK-MEL-5 melanoma
UACC-62 melanoma = test system: UACC-62 melanoma
OVCAR-5 ovarian = test system: OVCAR-5 ovarian
NCI-H460 lung = test system: NCI-H460 lung
CAKI-1 renal = test system: CAKI-1 renal
SN12C renal = test system: SN12C renal
EKVX NSCLC = test system: EKVX NSCLC
SF-268 CNS = test system: SF-268 CNS
OVCAR-8 ovarian = test system: OVCAR-8 ovarian
NCI-H23 lung = test system: NCI-H23 lung
CCRF-CEM leukemia = test system: CCRF-CEM leukemia
HOP-92 NSCLC = test system: HOP-92 NSCLC
HCT-15 colon = test system: HCT-15 colon
SK-MEL-28 melanoma = test system: SK-MEL-28 melanoma
LOX IMVI melanoma = test system: LOX IMVI melanoma
HT29 colon = test system: HT29 colon
MDA-MB-435 = test system: MDA-MB-435
SR leukemia = test system: SR leukemia
HCT-116 colon = test system: HCT-116 colon
SF-295 CNS = test system: SF-295 CNS
OVCAR-4 ovarian = test system: OVCAR-4 ovarian
RXF 393 renal = test system: RXF 393 renal

## C[C@@H]1CC[C@@H]2[C@@H]1[C@H](OC(=O)/C=C/c1ccccc1)[C@]1(C3CCCCC3)C[C@@H](OC(=O)CO)[C@@]2(C)O1
SF-539 CNS
  GI50: 5.48 µM
  TGI: 18.5 µM
RPMI-8226 leukemia
  GI50: 2.99 µM
  TGI: 7.49 µM
SNB-19 CNS
  GI50: 3.94 µM
  TGI: 13.6 µM
A549 NSCLC
  GI50: 4.03 µM
  TGI: 14.1 µM
IGROV1 ovarian
  GI50: 3.84 µM
  TGI: 15 µM
SW-620 colon
  GI50: 4.43 µM
  TGI: 16.9 µM
SNB-75 CNS
  GI50: 1.09 µM
  TGI: 14.7 µM
U251 CNS
  GI50: 2.7 µM
  TGI: 8.26 µM
NCI/ADR-RES ovarian
  GI50: 0.515 µM
  TGI: 5.2 µM
COLO 205 colon
  GI50: 3.12 µM
  TGI: 11.1 µM
MALME-3M melanoma
  GI50: 2.48 µM
  TGI: 7.21 µM
MOLT-4 leukemia
  GI50: 2.61 µM
  TGI: 6.07 µM
T-47D breast
  GI50: 2.64 µM
  TGI: 10.7 µM
UACC-257 melanoma
  GI50: 5.1 µM
  TGI: 18.7 µM
HOP-62 NSCLC
  GI50: 3.3 µM
  TGI: 14 µM
SK-OV-3 ovarian
  GI50: 6.71 µM
  TGI: 20.2 µM
A498 renal
  GI50: 0.0191 µM
  TGI: 0.0572 µM
M14 melanoma
  GI50: 3.57 µM
  TGI: 15.2 µM
MDA-MB-231 breast
  GI50: 2.47 µM
  TGI: 6.61 µM
NCI-H226 lung
  GI50: 2.06 µM
  TGI: 5.56 µM
NCI-H522 lung
  GI50: 2.4 µM
  TGI: 6.75 µM
786-0 renal
  GI50: 1.17 µM
  TGI: 3.07 µM
TK-10 renal
  GI50: 9.17 µM
  TGI: 22.5 µM
HCC-2998 colon
  GI50: 1.94 µM
  TGI: 3.92 µM
SK-MEL-2 melanoma
  GI50: 4.03 µM
  TGI: 16.1 µM
HL-60(TB) leukemia
  GI50: 2.75 µM
  TGI: 6.43 µM
KM12 colon
  GI50: 3.1 µM
  TGI: 10.8 µM
K-562 leukemia
  GI50: 3.88 µM
  TGI: 14.6 µM
OVCAR-3 ovarian
  GI50: 2.53 µM
  TGI: 7.3 µM
UO-31 renal
  GI50: 0.015 µM
  TGI: 0.03 µM
BT-549 breast
  GI50: 0.0337 µM
  TGI: 0.729 µM
MCF7 breast
  GI50: 2.58 µM
  TGI: 10.8 µM
HS 578T breast
  GI50: 0.0237 µM
  TGI: 0.0978 µM
PC-3 prostate
  GI50: 3.04 µM
  TGI: 11.3 µM
DU-145 prostate
  GI50: 3.99 µM
  TGI: 14.7 µM
SK-MEL-5 melanoma
  GI50: 2.36 µM
  TGI: 6.11 µM
UACC-62 melanoma
  GI50: 3.11 µM
  TGI: 10.1 µM
OVCAR-5 ovarian
  GI50: 1.93 µM
  TGI: 5.59 µM
NCI-H460 lung
  GI50: 2.62 µM
  TGI: 6.55 µM
CAKI-1 renal
  GI50: 0.0347 µM
  TGI: 11 µM
SN12C renal
  GI50: 0.086 µM
  TGI: 3.56 µM
EKVX NSCLC
  GI50: 3.47 µM
  TGI: 15.6 µM
SF-268 CNS
  GI50: 1.48 µM
  TGI: 9.86 µM
OVCAR-8 ovarian
  GI50: 0.513 µM
  TGI: 13 µM
NCI-H23 lung
  GI50: 3.88 µM
  TGI: 14.8 µM
CCRF-CEM leukemia
  GI50: 4.45 µM
  TGI: 14.1 µM
HOP-92 NSCLC
  GI50: 2.68 µM
  TGI: 9.17 µM
HCT-15 colon
  GI50: 2.44 µM
  TGI: 7.93 µM
SK-MEL-28 melanoma
  GI50: 3.59 µM
  TGI: 15.1 µM
LOX IMVI melanoma
  GI50: 1.67 µM
  TGI: 3.27 µM
HT29 colon
  GI50: 2.89 µM
  TGI: 8.05 µM
MDA-MB-435
  GI50: 2.99 µM
  TGI: 11 µM
SR leukemia
  GI50: 2.6 µM
  TGI: 6.9 µM
HCT-116 colon
  GI50: 1.92 µM
  TGI: 4.13 µM
SF-295 CNS
  GI50: 3.6 µM
  TGI: 13.1 µM
OVCAR-4 ovarian
  GI50: 3.92 µM
  TGI: 16 µM
RXF 393 renal
  GI50: 0.0779 µM
  TGI: 3.16 µM
